Experimental data reported in US8431536B2, “Target for breast cancer therapy and/or diagnosis” (The University of Queensland, priority 2007, dated 2013).

System: MCF-7 breast cancer cells
Assay: MTS proliferation/viability assay in MCF-7 breast cancer cells
Format: cell-based
Conditions: 50 μM, treated on plating in 10% foetal bovine serum, MTS 72 hrs after plating, p<0.05 vs methanol control (FIG. 8)
Method: FIG. 6 The effect of siRNA to CRACM1 (96 hrs) on the viability of MCF-7 cells, as measured by an MTS assay for cellular proliferation. Normalized MTS absorbance (proliferation/viability) of the mean of 3 independent experiments in MCF-7 breast cancer cells (±SEM). For each experiment absorbance was assessed in quadruplicate. Experiment was performed in 1% foetal bovine serum (p<0.05).
FIG. 8 MTS assay of MCF-7 cells treated with 50 μM 2-APB. * p<0.05 compared with respective methanol control. Error bars=SD. Cells were treated with 2-APB on plating in 10% foetal bovine serum. MTS assay was performed 72 hrs after plating.

Compound: NCCOB(c1ccccc1)c1ccccc1 [2-APB, 2-aminoethoxydiphenyl borate]
- proliferation/viability of MCF-7 cells (MTS assay): inhibits the proliferation/viability of MCF-7 breast
